From patent publication US9963473B2, “Stabilized form of tetrofosmin and its use” (priority 2014, dated 2018) come the findings set out here.

The nature of series [1]: Hygroscopicity (open vial, change of weight). The class given is physicochemical. From the text:
An open vial of Tetrofosmin x 2 HBF4 was stored at room temperature, normal atmosphere and 50% humidity.

A short description of series [2]: Storage stability of Tetrofosmin x 2 HBF4 (1H and 31P NMR spectra). The class given is physicochemical. On the procedure:
Tetrofosmin x 2 HBF4 was stored at room temperature without protective gas (e. g. argon or nitrogen). In accordance to example 1, the ^1H and ^31P spectra were unchanged after 12 months.
Moreover, Tetrofosmin x 2 HBF4 was heated in a normal atmosphere (with oxygen) at 50° C. for 6 hours.

`CCOCCP(CCOCC)CCP(CCOCC)CCOCC.Cl` [Tetrofosmin hydrochloride, reference compound]: the “physical nature / hygroscopicity” value in series [1] (own experiments of the inventors) is “oily and hygrospcopic”.

Take Tetrofosmin x 2 HBF4: the “1H and 31P spectra after heating” value in series [2] (normal atmosphere (with oxygen), 50° C. for 6 hours) is “no sign of degradation”. In addition, the “1H and 31P spectra after storage” value in series [2] (room temperature, without protective gas, after 12 months) is listed as “unchanged”. Moreover, the “change of weight (hygroscopicity)” value in series [1] (open vial, room temperature, normal atmosphere, 50% humidity, after 72 h) is reported as “no change of weight”.
